From US20260014132A1, “PROTEASE ACTIVATED RECEPTOR 2 (PAR2) INHIBITOR AND ITS USES” (UNIVERSITÀ DEGLI STUDI DI PADOVA, priority 2022, published 2026) come the findings set out here.

A value given as a limit tells only on which side of the number the result lay.

For one data set, the system named is platelet aggregation. Description: Platelet aggregation, TRAP test, Multiplate analyzer, whole blood. In kind it is cell-based. Conditions: TRAP-6, increasing concentrations of 1-PPA. From the text:
The analysis of platelet function can be performed by the Multiplate® analyzer (Roche Diagnostics) which is a method based on impedance aggregometry and can be used to measure platelet function in whole blood in the presence or absence of inhibitors. In particular the TRAP test is an assay for the in vitro quantitative determination of platelet function triggered by thrombin receptor activating peptide-6 (TRAP-6) which is a potent platelet activator and stimulates platelet aggregation through the thrombin receptor PAR-1, this peptide has also been found capable of activating PAR2 (Cas #AS-24190-25, CliniScience), which can be activated by thrombin in the presence of thrombomodulin (Heuberger et al, Thrombosis Research 2019, 177:91-101).
Multiplate® Analyzer, Roche Diagnostics) was used, where the blood sample was analyzed alone or in presence of increasing concentrations of 1-PPA.

In a further data set the test system is LPS-induced sepsis. Put plainly: LPS-induced systemic sepsis model in mice. In kind it is in vivo, C57BL/6 J mice. Conditions: LPS about 10 mg/kg intraperitoneal. The procedure: In vivo experiments are underway on models of systemic sepsis, in order to validate the protective effect of 1-PPA against the development of cytokine storm and septic shock with multiple organ failure, using C57BL/6 J mice. The first part of the study consists in the induction of sepsis through LPS and experimental treatment with 1-PPA.
The intraperitoneal administration with LPS (about 10 mg/kg, L4130, Sigma-Aldrich) associated with 1-PPA or alternatively with PBS, was carried out under anesthesia (Sevorane at 4% in medical oxygen) through the use of Fluovac (Harvard Instruments), dedicated for the anesthesia of small animals.
The time interval of 8 hours is considered the optimal interval for observing the onset of scientifically quantifiable sepsis in mice, and for evaluating the efficacy of a treatment aimed at inhibiting it by administering 1-PPA.
FIG. 6A illustrates the experimental design and the quantification of the degree of malaise using a score commonly used to determine the condition of the animal, where 0 refers to the normal condition and 5 refers to a pre-terminal condition. A score of 6 was attributed to the death of the animal.

Data set [1] concerns PAR2. Description: PAR2 mRNA expression (qPCR) in LPS-stimulated THP-1 cells. In kind it is cell-based, human. As to the method:
(§1) In order to evaluate the effect of 1-Piperidin Propionic acid on the transcriptional activity of the membrane receptor Protease Activated Receptor-2 (PAR2), monocyte-derived cell line THP-1 was used. The cells were incubated with LPS, known to induce PAR2 expression in this cell compartment, at a concentration of 1 ng/ml, or with medium alone, as a control, for 2 hours with 1-PPA at a concentration of 1 ng/ml and 100 ng/ml. In further experiments transfected HepG2 cells were used transiently with plasmid containing the human PAR2 sequence by Lipofectamy. These cells were incubated with medium alone, as a control, or with increasing concentrations of 1-PPA, as described above. Cell extracts from both lines were then subjected to extraction of cellular RNA which was reverse transcribed into cDNA and amplified by qPCR.
(§2) Similar results were also obtained in transfected HepG2 cells transiently to overexpress PAR2.

For the next data set, the system named is IL-1β. Put plainly: LPS-induced IL-1β transcriptional expression in THP-1 cells (RT-PCR). In kind it is cell-based, human. As to the method:
(§3) Given that PAR2 is deeply implicated in the induction of proinflammatory cytokines, the ability of PPA in the inhibition of proinflammatory cytokines in a context simulating bacterial sepsis was evaluated. In FIGS. 3A and 3B the THP-1 cell line of monocytic origin was used, incubated with LPS ([…]), which in example 1 had induced an increase in the synthesis of endogenous PAR2. Cells were simultaneously treated with 1-PPA at a concentration of 1 ng/ml or 100 ng/ml or medium alone as control and incubated for 1 or 4 hours. The cell extracts were used to analyze the transcriptional expression of the cytokines TNF-α and IL-1β by RT-PCR.

The test system of the next data set is TNF-α. Put plainly: LPS-induced TNF-α transcriptional expression in THP-1 cells (RT-PCR). In kind it is cell-based, human. The procedure:
as §3

The subject of data set [2] is PAR2. Put plainly: Cellular Thermal Shift Assay (CETSA) and Western blot in lysates of HepG2 cells overexpressing PAR2. Conditions: soluble fraction of extracts of HepG2 overexpressing PAR2, progressive increase in temperature. In kind it is binding, human. An excerpt:
These interaction data between 1-PPA and PAR2 were also confirmed at the protein level, using the cellular thermal shift assay (CETSA) (Science 341 (6141): 84-87). This is a biophysical assay based on the principle of ligand-induced thermal stabilization of target proteins, as the melting temperature of proteins changes according to the interaction of the ligand.
This conformation was identified as level class 0, which is the highest scoring and most reliable analysis. […] In particular, HepG2 cells have been genetically modified to overexpress transiently PAR 2 using cDNA as expression plasmid 3.1. The soluble fraction of the cell extracts was then subjected to the CETSA test, in the presence or absence of 1-PPA, according to the protocol. The samples were also studied by Wester blot using an anti HA-tag PAR 2 monoclonal antibody.
On the technique in general: A western blot detects proteins with antibodies after separation by electrophoresis.

The nature of data set [3]: In vivo organ damage (liver, kidney) after 26 weeks of 1-PPA. More on the design: species or system CC57/BL6 mice. Conditions: 0.07 and 0.7 μg/g/week, normal diet, serum. As to the method: The organ damage of the 1-PPA compound in vivo was also evaluated, considering the function of the liver and kidney, the main organs responsible for pharmacological catabolismln detail, the study included 2 groups of CC57/BL6 mice (4 mice/group, age 45 days), inoculated with 1-PPA at concentrations of 0.07 and 0.7 μg/g/week), for a time period of 26 weeks. All animals were fed a normal diet throughout the study. Before starting the 1-PPA inoculation, a basal blood sample was taken from all animals and a second sample was taken from the sacrifice.
At serum level, alanine aminotransferase (ALT) as an indicator of hepatic cytolytic damage, bilirubin as an indicator of hepatic cholestasis, blood urea nitrogen (Blood urea nitrogen, BUN) as an indicator of renal damage were evaluated. The results were expressed as the ratio between the value of the final sampling and that of the basal sampling.

For data set [4], the system named is PAR2. Description: PAR2 mRNA expression (qPCR) in HepG2 cells transiently transfected to overexpress PAR2. The format is cell-based, human. As to the method:
as §1, §2
Background: Real-time PCR tracks product formation cycle by cycle.

A further data set concerns gouty arthritis. Description: Mouse model of gouty arthritis (uric acid microcrystals in hind paw). The format is in vivo, mice (C57BL6J). An excerpt:
To evaluate the inhibitory capacity of 1-PPA in pain perception, notoriously mediated by PAR2 as a receptor of peripheral nerve endings (Andrea S. Rothmeier & Wolfram Ruf. Semin Immunopathol, 2012; 34:133-149), an experimental model of inflammatory arthritis was used. In particular, a mouse model of gout was used by injecting microcrystals of uric acid subcutaneously into the plantar surface of the hind legs of mice (C57BL6J), followed by injection of 1-PPA at different concentrations in one hind leg, using the contralateral leg as a control. After a few hours, the microcrystal treatment induces swelling and edema at the injection site which reaches a peak of inflammation and pain at 48 hours and then resolves spontaneously.
To evaluate the intensity of pain, the electronic von Frey test was used, which involves recording the intensity of the stimulus that evokes a withdrawal reflex, after the application of the pain stimulus to the plantar surface of the hind leg.

The subject of another data set is HepG2 cell line. Description: In vitro toxicity, real-time cell proliferation (XCelligence) in HepG2. The format is cell-based. From the text:
Real-time cell proliferation was monitored using the XCelligence tool (ACEA) and the results were expressed as Cell Index, which expresses the cell number at each point considered.

For another data set, the system named is chronic kidney disease. Put plainly: CKD induced by folic acid and treatment with 1-PPA. Particulars: FA 125 mg/kg i.p., 1-PPA i.p. 0.1 μg/g from third day, thirtieth day, expected. The format is in vivo, mouse. The procedure:
A single intraperitoneal injection of FA (dosage of 125 mg/kg) induces renal damage which reproduces the analogous syndrome in man after 30 days. To ensure maximum precision and least distress for the animal, the 1-PPA inoculation is performed by anesthetizing the mouse for a few minutes using deep inhalation surgical anesthesia using 4% Sevorane in medical oxygen administered through a Fluovac device (Harvard Instruments) specifically dedicated to the anesthesia of laboratory rodents.
Treatment with 1-PPA (i.p. injection at a concentration of 0.1 μg/g of body weight) begins from the third day after the induction of renal damage (groups FA+1-PPA). Control groups are treated with PBS (FA+PBS groups).
Renal function is monitored weekly by semiquantitative evaluation of proteinuria using multistix (Siemens). For urine collection, the […] is placed in a carefully cleaned plexiglass tray, in the presence of dedicated environmental enrichment. After 30 days from the induction of the renal damage the animals are sacrificed by cervical dislocation or excess anesthesia. Peripheral blood is collected by intracardiac puncture, and kidneys and liver are sampled in formalin and at −80° C. for subsequent evaluations of IHC and gene expression. […]

[5] abbreviates: THP-1, 1-PPA 1 ng/ml or 100 ng/ml, 1 or 4 hours.

Regarding `O=C(O)CCN1CCCCC1` [1-PPA, 1-Piperidine Propionic Acid], in the data set on platelet aggregation, the platelet aggregation result is given as “inhibiting platelet aggregation in a dose-dependent manner”. Further, the “degree of malaise score (0 normal, 5 pre-terminal, 6 death)” value with LPS-induced sepsis (1-PPA 3 μg, maximum reached) is on record as no more than 2. Besides, the “protection from LPS-induced sepsis” value with LPS-induced sepsis (low concentrations of 1-PPA) is “protected mice from LPS-induced sepsis”. For the same compound, the “PAR2 mRNA expression” value with PAR2 [1] (THP-1 cells, LPS 1 ng/ml, 2 hours, 1-PPA 1 ng/ml and 100 ng/ml) is listed as “marked reduction of its expression”; in the data set on PAR2 [4] (HepG2 transiently transfected with human PAR2 plasmid, increasing concentrations of 1-PPA) it was “effective inhibition of PAR2 mRNA”. Moreover, the “concentration capable of inhibiting the synthesis of PAR2” value in the data set on PAR2 [1] (THP-1 line, PAR2 overexpression conditions) is 1 ng/mL; in the data set on PAR2 [4] (HepG2 line, PAR2 overexpression conditions) it was 1 ng/mL. The “IL-1β transcriptional expression induced by LPS” value with IL-1β (setting [5]) is “effectively blocked”. Besides, the “concentration at which inhibitory effect is achieved” value was 1 ng/mL in the data set on IL-1β (THP-1, LPS) and 1 ng/mL in the data set with TNF-α (THP-1, LPS). In the data set on IL-1β (lowest 1-PPA concentration (1 ng/ml), persisting LPS induction), the “control of IL-1β synthesis over time” value is listed as “still more effective in controlling the synthesis”. The “TNF-α transcriptional expression induced by LPS” value in the data set on TNF-α (setting [5]) is on record as “effectively blocked”. Further, the “thermal stabilization of PAR2 protein (CETSA)” value with PAR2 [2] is “thermal stability of the PAR2 protein”. Besides, the “alanine aminotransferase (ALT), ratio final/basal sampling” value in data set [3] was less than 2 ×normal values. In addition, the “bilirubin, ratio final/basal sampling” value in data set [3] is less than 2 ×normal values. Also, the “blood urea nitrogen (BUN), ratio final/basal sampling” value in [3] was less than 2 ×normal values. For the same compound, the “stimulus to induce the withdrawal reflex (electronic von Frey test)” value in the data set with gouty arthritis (compared to mice injected only with microcrystals) was “significantly greater stimulus”. Further, the “paw edema and redness (confirmed by paw circumference)” value in the data set on gouty arthritis (urate microcrystals subcutaneously in plantar surface, 1-PPA injected in hind leg, versus not treated) was “visually less edematous and reddened”. In the data set on HepG2 cell line (5 μg/ml versus biologically effective dose), the “non-toxic concentration relative to biologically effective dose” value was “at least 50 times”. Moreover, the “cellular toxic effect (Cell Index)” value with HepG2 cell line (HepG2, 5 μg/ml) is given as “did not demonstrate a cellular toxic effect”. Moreover, in the data set on chronic kidney disease, the “mean value of proteinuria measured in the urine” value is listed as “moderate residual damage”.
